What all share (format): biochemical
For assay [1], the target named is T1, IDE (R&D), substrate insulin (Homo sapiens, UniProt P14735).
T1 construct: recombinant human IDE42-1019 (R&D Systems); purchased R&D
T1 sequence (P14735 42-1019): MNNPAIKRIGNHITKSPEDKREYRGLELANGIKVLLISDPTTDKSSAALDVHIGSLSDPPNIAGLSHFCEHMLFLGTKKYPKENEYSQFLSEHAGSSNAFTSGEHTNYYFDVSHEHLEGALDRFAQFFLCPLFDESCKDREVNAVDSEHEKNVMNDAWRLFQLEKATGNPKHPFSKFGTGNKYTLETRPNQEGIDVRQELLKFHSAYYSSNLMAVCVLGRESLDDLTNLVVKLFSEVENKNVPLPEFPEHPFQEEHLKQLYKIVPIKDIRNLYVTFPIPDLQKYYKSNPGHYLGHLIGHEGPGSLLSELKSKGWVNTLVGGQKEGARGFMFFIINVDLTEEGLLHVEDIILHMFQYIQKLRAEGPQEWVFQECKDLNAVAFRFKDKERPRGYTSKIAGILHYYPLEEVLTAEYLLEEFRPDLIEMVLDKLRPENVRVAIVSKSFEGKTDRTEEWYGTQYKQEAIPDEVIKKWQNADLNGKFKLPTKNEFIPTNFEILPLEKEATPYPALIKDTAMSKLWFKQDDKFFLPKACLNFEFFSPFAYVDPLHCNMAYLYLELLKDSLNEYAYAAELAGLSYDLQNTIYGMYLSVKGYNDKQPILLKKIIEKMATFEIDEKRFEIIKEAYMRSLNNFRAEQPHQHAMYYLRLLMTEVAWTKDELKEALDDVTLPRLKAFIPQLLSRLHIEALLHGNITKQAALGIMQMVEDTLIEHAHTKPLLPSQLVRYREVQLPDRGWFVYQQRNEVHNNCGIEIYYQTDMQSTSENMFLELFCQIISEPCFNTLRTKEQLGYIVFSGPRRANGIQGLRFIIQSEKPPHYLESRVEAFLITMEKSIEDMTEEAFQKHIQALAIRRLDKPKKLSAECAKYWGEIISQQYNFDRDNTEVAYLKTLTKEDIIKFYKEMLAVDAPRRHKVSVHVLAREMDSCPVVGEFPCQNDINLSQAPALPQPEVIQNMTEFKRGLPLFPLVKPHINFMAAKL
Kind of assay: HTRF endpoint assay for IDE-mediated degradation of insulin. The conditions noted are these: HTRF endpoint assays for insulin and glucagon, FIG. 4; compounds 67 μM, 6bK 10 μM. How it is done:
A solution of 0.8 μg/mL IDE (R&D) in pH 7.5 buffer containing 20 mM HEPES, 135 mM NaCl (24 μL) was transferred to a 200 μL tube strip, and combined with 1 μL of each inhibitor (10 mM in DMSO, or as a 3-fold dilution series). A solution of insulin in “Assay Diluent” (CisBio, 25 μL) was added to a final concentration of 20 ng/mL, and incubated at 30° C. for 15 minutes. This procedure was optimized to result in ˜75% degradation of insulin. The reaction was terminated by adding 25 μL of inhibitor Ii1 (200 nM) and chilled on ice. The remaining insulin was quantified using 10 μL of the quenched enzymatic reaction using the sensitive-range protocol Homogeneous Time-Resolved FRET Insulin assay (CisBio® 62INSPEB, see FIG. 3) in 20 μL total volume according to the manufacturer's instructions (384 well-plate Greiner 784904 non-binding). Fluorescence was measured using a Tecan M1000Pro plate reader (excitation=320 nm, emission=665 and 620 nm, lag time=60 μs) according the assay manufacturer's recommendations. Blank wells and insulin standard curve were included in the assay.
FIG. 4 compares the determined endpoint for insulin degradation with of glucagon degradation for a DMSO control, 6bK at 10 μM, and exemplary compounds of the invention at concentrations of 67 μM. […]
On the technique in general: Time-resolved FRET reads energy transfer from a long-lived donor to a nearby acceptor.

In assay [2] the test system is human IDE Val360Gln and Tyr314Phe. Kind of assay: Activity assay of mutant human IDE variants Val360Gln and Tyr314Phe with IDE inhibitors. The text has this:
(§1) N-His6-tagged human IDE42-1019 construct was introduced in the expression plasmid pTrcHis-A (Invitrogen) using primers for uracil-specific excision reactions (USER) by Taq (NEB) and Pfu polymerases (PfuTurbo CX®, Agilent), as described in more detail in Maianti et al. (Nature (2014), 511, 94-98), which is incorporated by reference herein. The IDE gene was amplified with the primers 5′-[…]-dU-[…] (SEQ ID NO: 26) and 5′-[…] G-dU-[…] (SEQ ID NO: 27) (underlined sequences represent overhangs, and italics highlight the PCR priming sequence). Similarly, the pTrcHis-A vector was amplified for USER cloning with the primers 5′-[…]-dU-[…] (SEQ ID NO: 28) and 5′-[…]-dU-[…] (SEQ ID NO: 29). Mutant IDE constructs were generated by amplifying the full vector construct with USER cloning primers introducing a mutant overhang (see Table E6).
(§2) Recombinant His6-tagged proteins were purified by Ni(II)-affinity chromatography (IMAC sepharose beads, GE Healthcare®) according to the manufacturer's instructions. The cell pellets were re-suspended in pH 8.0 buffer containing 50 mM phosphate, 300 mM NaCl, 10 mM imidazole, 1% Triton X-100 and 1 mM tris(2-carboxyethyl)phosphine hydrochloride (TCEP), and were lysed by probe sonication for 4 minutes at <4° C., followed by clearing of cell debris by centrifugation at 10,000 g for 25 minutes at 4° C. […]

Assay [3] deals with human IDE Ile362Gln and Gly362Gln. The assay is described as follows: Activity assay of mutant human IDE variants Ile362Gln and Gly362Gln with IDE inhibitors.
Description: as §1, §2

The results in this text go back to patent publication US11040976B2, “Substrate selective inhibitors of insulin-degrading enzyme (IDE) and uses thereof” (President and Fellows of Harvard College, priority 2015, dated 2021).

For `NCCCC[C@@H]1NC(=O)/C=C/C(=O)N[C@H](C(N)=O)CCCCNC(=O)[C@@H](Cc2ccc(C(=O)c3ccccc3)cc2)NC(=O)[C@H](CC2CCCCC2)NC1=O` [6bK, reference compound], the “selectivity between insulin degradation and glucagon degradation” value in assay [1] is “no selectivity”.

As to `Cc1cccc(-c2ccc([C@@H]3[C@@H](CO)N4CCCCN(S(=O)(=O)c5ccccc5C)C[C@@H]34)cc2)c1` [compound 297], in assay [2], the “effect of variants Val360Gln and Tyr314Phe on potency” value is on record as “minor impacts on potency”. Further, the “effect of mutations Ile362Gln and Gly362Gln on inhibition potency” value in assay [3] is “reduce the inhibition potency”.
